Data from paper PMC6100415, “Hepatic Metabolism of Sakuranetin and Its Modulating Effects on Cytochrome P450s and UDP-Glucuronosyltransferases” (Molecules : A Journal of Synthetic Chemistry and Natural …, 2018).
Like-named read-outs stand apart in the source and are kept apart here.

What was measured:
UGT1A1 = target: T1, UGT1A1 (Homo sapiens, UniProt P22309); assay: UGT inhibition in human liver microsomes, 17β-estradiol 3-O-glucuronidation (ESG); format: in vitro ADME; conditions: pH 7.4, probe 17β-estradiol (200 μM)
T1 construct: The typical incubation mixture contained human liver microsomes (0.5 mg/mL) along with SKN (10 μM); tissue BD Gentest; host or cells: human liver microsomes
T1 sequence (P22309 26-533): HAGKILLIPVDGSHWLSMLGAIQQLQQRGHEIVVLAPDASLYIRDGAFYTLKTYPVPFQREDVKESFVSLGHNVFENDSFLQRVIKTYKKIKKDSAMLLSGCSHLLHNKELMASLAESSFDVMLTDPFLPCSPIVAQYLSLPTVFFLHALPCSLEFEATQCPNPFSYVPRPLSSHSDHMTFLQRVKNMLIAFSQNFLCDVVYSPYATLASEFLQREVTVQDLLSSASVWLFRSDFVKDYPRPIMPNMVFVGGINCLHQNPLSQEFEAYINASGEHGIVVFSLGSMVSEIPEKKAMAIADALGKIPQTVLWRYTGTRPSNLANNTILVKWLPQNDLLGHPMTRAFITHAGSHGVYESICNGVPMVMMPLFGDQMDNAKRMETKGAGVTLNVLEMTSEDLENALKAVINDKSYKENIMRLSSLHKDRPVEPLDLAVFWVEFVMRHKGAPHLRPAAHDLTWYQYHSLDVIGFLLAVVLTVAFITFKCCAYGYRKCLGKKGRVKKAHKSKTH
Description: (§1) The formation of a glucuronide conjugate from an isozyme-specific substrate (200 μM, Table 5) was examined to determine UGT activity levels in human liver microsomes. The typical incubation mixture contained human liver microsomes (0.5 mg/mL) along with SKN (10 μM), and MgCl2 (10 mM) in 50 mM Tris-HCl buffer (pH 7.4). The metabolic reaction was initiated by adding UPDGA (2 mM) and stopped by adding an equal volume of ice-cold methanol. […] The conditions used for the operation and analysis of the HPLC-DAD and LC-ESI-MS are provided in the Supplementary Materials and Table S3.
(§2) The solvent flow rate was set at 0.2 mL/min, and the column temperature was set at 35 °C. The LTQ instrument was operated in negative ion electron spray mode at an ion spray voltage of −4.2 kV and a source temperature of 275 °C. The sheath gas flow rate was 35 arb, and the aux gas flow rate was 5 arb. The MS conditions used to detect glucuronides via selected ion monitoring scan mode are summarized in Supplementary Materials Table S3.

UGT1A3 = target: T2, UGT1A3 (Homo sapiens, UniProt P35503); assay: UGT inhibition in human liver microsomes, chenodeoxycholic acid 24-glucuronidation (CDCAG); format: in vitro ADME; conditions: pH 7.4, probe chenodeoxycholic acid (200 μM)
T2 construct: The typical incubation mixture contained human liver microsomes (0.5 mg/mL) along with SKN (10 μM); tissue BD Gentest; host or cells: human liver microsomes
T2 sequence (P35503 29-534): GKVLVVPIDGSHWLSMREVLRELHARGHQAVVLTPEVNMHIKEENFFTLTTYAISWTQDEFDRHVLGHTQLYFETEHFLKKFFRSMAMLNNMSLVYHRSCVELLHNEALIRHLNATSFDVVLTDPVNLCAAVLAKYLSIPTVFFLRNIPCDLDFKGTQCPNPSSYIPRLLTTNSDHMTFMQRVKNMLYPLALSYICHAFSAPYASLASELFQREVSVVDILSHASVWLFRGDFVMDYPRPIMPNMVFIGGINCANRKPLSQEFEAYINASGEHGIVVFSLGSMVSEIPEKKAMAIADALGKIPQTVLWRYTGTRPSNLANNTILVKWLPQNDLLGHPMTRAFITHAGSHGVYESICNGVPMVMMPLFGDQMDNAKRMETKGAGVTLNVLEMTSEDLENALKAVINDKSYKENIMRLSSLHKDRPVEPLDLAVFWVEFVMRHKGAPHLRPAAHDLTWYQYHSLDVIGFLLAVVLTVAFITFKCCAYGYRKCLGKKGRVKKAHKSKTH
Description: as §1, §2

CYP2B6 = target: T3, CYP2B6 (Homo sapiens, UniProt P20813); assay: CYP inhibition in human liver microsomes, bupropion hydroxylation (BPHY); format: in vitro ADME; conditions: pH 7.4, probe bupropion (hydroxylation, BPHY)
T3 sequence (P20813 1-491): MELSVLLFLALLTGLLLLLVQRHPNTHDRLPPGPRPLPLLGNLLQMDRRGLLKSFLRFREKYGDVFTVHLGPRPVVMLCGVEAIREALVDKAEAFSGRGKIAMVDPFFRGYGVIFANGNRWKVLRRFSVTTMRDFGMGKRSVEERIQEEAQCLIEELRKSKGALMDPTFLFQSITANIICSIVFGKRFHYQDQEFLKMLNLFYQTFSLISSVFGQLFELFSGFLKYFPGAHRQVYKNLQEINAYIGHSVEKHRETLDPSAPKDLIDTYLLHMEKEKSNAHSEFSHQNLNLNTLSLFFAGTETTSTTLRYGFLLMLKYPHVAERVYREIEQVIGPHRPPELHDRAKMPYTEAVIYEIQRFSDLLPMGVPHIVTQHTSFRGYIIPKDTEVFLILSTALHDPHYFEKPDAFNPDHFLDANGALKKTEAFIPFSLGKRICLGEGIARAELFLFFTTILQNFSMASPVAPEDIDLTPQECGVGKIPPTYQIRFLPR
Excerpt: (§3) The DAD was set at 280 nm.

CYP2D6 = CYP2D6 (Homo sapiens, UniProt P10635); assay: CYP inhibition in human liver microsomes, dextromethorphan O-demethylation (DEXOD); format: in vitro ADME; conditions: pH 7.4, probe dextromethorphan (O-demethylation, DEXOD)
Excerpt: as §3

CYP2C9 [1] = target: T4, CYP2C9 (Homo sapiens, UniProt P11712); assay: in vitro; conditions: human liver microsomes, pH 7.4, probe diclofenac (4′-hydroxylation, DCHY), 200 µM
Description: (§4) The formation of a metabolite from a CYP isozyme-specific phenotyping reaction (Table 4) was monitored. Each substrate (200 μM), along with SKN (10 μM), was incubated with human liver microsomes (0.5 mg/mL) and an NADPH-generating system in 0.1 M potassium phosphate buffer (pH 7.4) at 37 °C for 60 min in a total volume of 200 μL in a shaking water bath. The metabolic reaction was initiated by adding NADP^+ (1 mM) and stopped by adding 10 μL of trichloroacetic acid. In some experiments, the microsomes were pre-incubated with SKN for 15 min prior to the addition of the cofactor, in order to determine the time-dependent inhibitory effect. […] In contrast, co-incubation refers to experiments in which microsomes and cofactors were incubated in the presence of SKN. After centrifugation of incubation samples at 12,000× g for 15 min at 4 °C, the supernatant (20 μL) was injected into an HPLC-DAD system to analyze the metabolites formation (Supplementary Materials).
(§5) The DAD was set at 248 nm for phenacetin O-deethylation (PCOD), 298 nm for bupropion hydroxylation (BPHY), 276 nm for diclofenac 4′-hydroxylation (DCHY), 230 nm for tolbutamide 6-hydroxylation (TOLHY), 280 nm for dextromethorphan O-demethylation (DEXOD), and 250 nm for testosterone 6β-hydroxylation (TSTHY) and testosterone β-D-glucuronidation (TSTG).

CYP2C9 [2] = target: T4, CYP2C9; assay: in vitro; conditions: human liver microsomes, pH 7.4, probe tolbutamide (6-hydroxylation, TOLHY), 200 µM
Description: as §4, §5

[3] = SKN 10 μM, 15 min pre-incubation, read-out: % Inhibition in Pre-Incubation
[4] = SKN 10 μM, read-out: % Inhibition in Co-Incubation
[5] = liver microsomes, 200 μM, SKN 10 μM, 15 min pre-incubation, read-out: % Inhibition in Pre-Incubation
[6] = liver microsomes, 200 μM, SKN 10 μM, human liver microsomes, read-out: % Inhibition in Co-Incubation
[7] = inhibitor 10 µM, human liver microsomes 0.5 mg/mL, read-out: Inhibition (%)
[8] = human liver microsomes, 200 µM, inhibitor 10 M [sic], human liver microsomes 0.5 mg/mL, read-out: Inhibition (%)

Sequence of CYP2D6 (P10635 whole entry): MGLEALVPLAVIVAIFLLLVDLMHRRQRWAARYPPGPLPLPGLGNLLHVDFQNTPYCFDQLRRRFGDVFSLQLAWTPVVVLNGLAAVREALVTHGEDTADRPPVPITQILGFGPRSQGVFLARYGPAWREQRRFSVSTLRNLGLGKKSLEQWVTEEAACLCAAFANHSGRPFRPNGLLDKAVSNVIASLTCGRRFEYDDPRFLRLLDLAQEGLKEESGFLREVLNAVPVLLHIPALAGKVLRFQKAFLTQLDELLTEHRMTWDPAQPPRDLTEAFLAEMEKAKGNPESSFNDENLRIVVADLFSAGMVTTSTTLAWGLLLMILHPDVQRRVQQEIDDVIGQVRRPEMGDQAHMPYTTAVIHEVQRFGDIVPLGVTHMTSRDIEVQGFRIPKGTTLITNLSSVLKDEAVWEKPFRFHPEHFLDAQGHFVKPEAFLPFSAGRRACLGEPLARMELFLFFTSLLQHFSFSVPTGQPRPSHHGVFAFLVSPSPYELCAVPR
T4 sequence (P11712 whole entry): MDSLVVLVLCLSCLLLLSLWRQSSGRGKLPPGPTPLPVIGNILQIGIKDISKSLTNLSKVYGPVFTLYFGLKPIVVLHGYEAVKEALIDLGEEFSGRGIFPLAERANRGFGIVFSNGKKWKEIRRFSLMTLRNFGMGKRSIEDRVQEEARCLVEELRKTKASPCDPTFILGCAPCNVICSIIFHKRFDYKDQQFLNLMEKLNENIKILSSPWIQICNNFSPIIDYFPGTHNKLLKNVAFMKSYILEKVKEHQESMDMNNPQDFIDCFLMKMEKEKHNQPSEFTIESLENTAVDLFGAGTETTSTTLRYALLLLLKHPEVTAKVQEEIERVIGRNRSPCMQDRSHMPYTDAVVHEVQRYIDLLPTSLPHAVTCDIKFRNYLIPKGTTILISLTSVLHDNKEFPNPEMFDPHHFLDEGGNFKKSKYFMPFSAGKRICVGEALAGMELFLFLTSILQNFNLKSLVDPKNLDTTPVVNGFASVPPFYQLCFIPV

Row | inhibition at 10 μM (UGT1A1; [3]) [%] | inhibition at 10 μM (UGT1A1; [4]) [%] | inhibition at 10 μM (UGT1A3; [3]) [%] | inhibition at 10 μM (UGT1A3; [4]) [%] | inhibition at 60 min, 10 µM (CYP2B6; [5]) [%] | inhibition at 60 min, 10 µM (CYP2B6; [6]) [%] | inhibition at 60 min, 10 µM (CYP2D6; [5]) [%] | inhibition at 60 min, 10 µM (CYP2D6; [6]) [%] | inhibition at 60 min, 10 µM (CYP2C9 [1]) [%] | inhibition at 10 μM (UGT1A1; [7]) [%] | inhibition at 10 μM (UGT1A3; [7]) [%] | inhibition at 60 min, 10 µM (CYP2C9 [2]) [%] | inhibition at 60 min, 10 µM (CYP2B6; [8]) [%] | inhibition at 60 min, 10 µM (CYP2D6; [8]) [%] | SMILES
1 | 1.5 ± 2.1 | 0.4 ± 0.5 | 0.8 ± 0.2 | -0.6 ± 0.9 | 0.8 ± 0.2 | -0.6 ± 0.9 | 3.5 ± 2.6 | -0.6 ± 3.1 | – | – | – | – | – | – | COc1cc(O)c2c(c1)OC(c1ccc(O)cc1)CC2=O (racemic) [SKN, (+/−) 7-O-methylnaringenin]
2 | – | – | – | – | – | – | – | – | 1 ± 0.7 | 20.8 ± 3.4 | 15.7 ± 2.9 | 7.7 ± 0.4 | 16.1 ± 0.9 | 5.6 ± 3.6 | O=C1C[C@@H](c2ccc(O)c(O)c2)Oc2cc(O)cc(O)c21 [Eriodictyol, 3′-hydroxynaringenin]
3 | – | – | – | – | – | – | – | – | 9.1 ± 1.8 | 10.8 ± 3 | 2 ± 0.9 | 12 ± 0.7 | 24 ± 2.2 | 11.9 ± 1.4 | O=C1C[C@@H](c2ccc(O)cc2)Oc2cc(O)cc(O)c21 [Naringenin]
